# Measurements as given in paper PMC4650696, “Novel anti-thrombotic agent for modulation of protein disulfide isomerase family member ERp57 for prophylactic therapy” (Scientific Reports, 2015).
# Experiments:
# [1] = biological target: T1, ERp57 (Rattus norvegicus, UniProt P11598); experiment: NeutrAvidin pull-down from platelet lysate, LC-MS/MS and immunoblot, competed by excess ADTM; assay type: cell-based
# T1 construct: gene Pdia3; endogenous, rat platelet lysate
# T1 sequence (P11598 25-505): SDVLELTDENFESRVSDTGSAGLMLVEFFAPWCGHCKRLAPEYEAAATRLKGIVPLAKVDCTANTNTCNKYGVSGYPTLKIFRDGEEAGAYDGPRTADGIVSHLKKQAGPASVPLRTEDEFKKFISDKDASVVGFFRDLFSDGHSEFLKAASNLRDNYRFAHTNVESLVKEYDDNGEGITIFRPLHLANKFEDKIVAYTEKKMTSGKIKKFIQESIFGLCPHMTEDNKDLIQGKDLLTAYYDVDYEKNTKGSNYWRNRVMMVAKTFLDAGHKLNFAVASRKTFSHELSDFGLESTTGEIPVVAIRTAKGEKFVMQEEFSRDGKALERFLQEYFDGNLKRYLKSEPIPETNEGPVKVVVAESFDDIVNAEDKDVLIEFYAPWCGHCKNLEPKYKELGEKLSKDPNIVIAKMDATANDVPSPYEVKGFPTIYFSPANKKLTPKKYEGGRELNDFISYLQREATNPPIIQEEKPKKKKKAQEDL
# [2] = biological target: T2, ERp72 (Rattus norvegicus, UniProt P38659); experiment: as above; assay type: cell-based
# T2 construct: gene Pdia4; endogenous, rat platelet lysate
# T2 sequence (P38659 21-643): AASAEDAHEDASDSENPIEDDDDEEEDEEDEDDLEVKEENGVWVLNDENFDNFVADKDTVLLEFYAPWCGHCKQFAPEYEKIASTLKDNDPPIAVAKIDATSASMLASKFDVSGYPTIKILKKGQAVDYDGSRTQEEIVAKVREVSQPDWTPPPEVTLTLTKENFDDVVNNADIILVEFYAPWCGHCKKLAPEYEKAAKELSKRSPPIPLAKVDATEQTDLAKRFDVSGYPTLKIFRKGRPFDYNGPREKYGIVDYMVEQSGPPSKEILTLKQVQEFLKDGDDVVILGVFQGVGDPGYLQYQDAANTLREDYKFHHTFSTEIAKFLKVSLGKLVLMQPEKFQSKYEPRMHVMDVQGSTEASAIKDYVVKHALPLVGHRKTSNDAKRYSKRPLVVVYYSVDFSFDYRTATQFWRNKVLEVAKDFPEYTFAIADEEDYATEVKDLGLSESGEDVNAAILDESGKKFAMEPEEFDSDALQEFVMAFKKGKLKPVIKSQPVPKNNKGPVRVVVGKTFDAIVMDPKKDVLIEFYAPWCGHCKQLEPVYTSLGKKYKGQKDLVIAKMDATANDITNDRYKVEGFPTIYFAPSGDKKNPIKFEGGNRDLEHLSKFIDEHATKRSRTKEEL
# [3] = biological target: T3, ERp5 (Rattus norvegicus, UniProt Q63081); experiment: as above; assay type: cell-based
# T3 construct: gene Pdia6; endogenous, rat platelet lysate
# T3 sequence (Q63081 20-440): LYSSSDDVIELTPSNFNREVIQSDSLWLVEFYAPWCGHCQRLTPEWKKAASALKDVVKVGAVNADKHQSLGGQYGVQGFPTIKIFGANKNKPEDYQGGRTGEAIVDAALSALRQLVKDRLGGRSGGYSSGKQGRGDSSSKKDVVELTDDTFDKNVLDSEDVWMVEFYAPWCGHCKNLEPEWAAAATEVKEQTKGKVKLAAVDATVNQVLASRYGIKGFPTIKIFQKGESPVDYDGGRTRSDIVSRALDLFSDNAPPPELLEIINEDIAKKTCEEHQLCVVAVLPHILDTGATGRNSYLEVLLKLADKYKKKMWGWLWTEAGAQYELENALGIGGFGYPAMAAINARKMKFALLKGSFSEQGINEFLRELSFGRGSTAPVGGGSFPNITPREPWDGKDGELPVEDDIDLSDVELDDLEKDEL
# [4] = biological target: T2, ERp72; experiment: competition of BAA pull-down by excess untagged ADTM, immunoblot; only […] inhibition of recombinant ERp72 at […]; assay type: cell-based
# [5] = biological target: T3, ERp5; experiment: competition of BAA pull-down by excess untagged ADTM, immunoblot; […] inhibition of ERp5 activity at […]; assay type: cell-based
# [6] = biological target: T4, ERp57 (Homo sapiens, UniProt P30101); experiment: insulin reduction turbidity assay with recombinant ERp57; irreversible after dilution; also competes with BAA in rat platelet lysate pull-down; assay type: biochemical
# T4 construct: gene PDIA3; human recombinant ERp57
# T4 sequence (P30101 25-505): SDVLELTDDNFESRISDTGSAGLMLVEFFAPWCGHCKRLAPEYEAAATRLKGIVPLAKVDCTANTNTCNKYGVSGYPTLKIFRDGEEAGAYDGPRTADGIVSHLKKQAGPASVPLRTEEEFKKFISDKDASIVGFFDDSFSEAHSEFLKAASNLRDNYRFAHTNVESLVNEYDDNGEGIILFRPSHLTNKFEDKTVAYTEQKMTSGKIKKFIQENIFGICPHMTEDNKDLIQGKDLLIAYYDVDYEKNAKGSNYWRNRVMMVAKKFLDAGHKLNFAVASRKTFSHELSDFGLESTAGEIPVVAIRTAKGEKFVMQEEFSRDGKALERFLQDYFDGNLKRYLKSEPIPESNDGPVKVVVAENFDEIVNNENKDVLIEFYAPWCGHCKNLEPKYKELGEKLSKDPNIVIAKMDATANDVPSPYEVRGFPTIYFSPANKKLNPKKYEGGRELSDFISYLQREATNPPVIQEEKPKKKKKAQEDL
# [7] = biological target: T5, PDI (Homo sapiens, UniProt P07237); experiment: insulin reduction turbidity assay with recombinant PDI (weak); assay type: biochemical
# T5 construct: gene P4HB; recombinant PDI
# T5 sequence (P07237 18-508): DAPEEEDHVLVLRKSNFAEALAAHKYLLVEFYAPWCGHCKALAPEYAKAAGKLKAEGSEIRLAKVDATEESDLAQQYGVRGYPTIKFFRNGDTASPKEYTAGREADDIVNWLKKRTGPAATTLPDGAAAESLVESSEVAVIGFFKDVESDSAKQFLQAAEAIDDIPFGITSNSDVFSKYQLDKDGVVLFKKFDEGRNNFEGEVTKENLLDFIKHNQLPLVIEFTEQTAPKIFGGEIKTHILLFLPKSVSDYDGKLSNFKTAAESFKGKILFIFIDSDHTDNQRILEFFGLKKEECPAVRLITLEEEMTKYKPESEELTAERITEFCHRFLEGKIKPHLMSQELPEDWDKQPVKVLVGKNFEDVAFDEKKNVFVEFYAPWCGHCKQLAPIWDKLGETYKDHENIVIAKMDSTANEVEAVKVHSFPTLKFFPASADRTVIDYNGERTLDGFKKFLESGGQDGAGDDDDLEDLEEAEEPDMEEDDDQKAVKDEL
Structure (SMILES),"NeutrAvidin pull-down from platelet lysate, LC-MS/MS and immunoblot, competed by [1]","NeutrAvidin pull-down from platelet lysate, LC-MS/MS and immunoblot, competed by [2]","NeutrAvidin pull-down from platelet lysate, LC-MS/MS and immunoblot, competed by [3]",inhibition at 300 µM [4],inhibition at 300 µM [5],IC50 [6],inhibition at 300 µM [7]
O=C1N[C@H]2[C@H](CS[C@H]2CCCCC(=O)O[C@H](Cc2ccc(O)c(O)c2)C(=O)OCc2ccccc2)N1 [BAA],"specificity of the binding between BAA and these targets (ERp72, ERp57 and ERp5) could be demonstrated by the competition","We confirmed the identity of the pulled-down proteins as ERp72, ERp57 and ERp5 with their respective antibodies","We confirmed the identity of the pulled-down proteins as ERp72, ERp57 and ERp5 with their respective antibodies",–,–,–,–
CC(=O)Oc1ccc(C[C@@H](OC(C)=O)C(=O)OCc2nc(C)c(C)nc2C)cc1OC(C)=O [ADTM],–,–,–,18%,38%,100 to 300 µM,30%
